Here are results for 10 compounds from US9840478B2 (MERCK SHARP & DOHME CORP., priority 2013, dated 2017).

pIC50: −log10 of the molar value.

For the test, the system named is HIV-1 (H9IIIB strain). Description: Cell-based HIV infection assay using a reporter (Cell-Based), MT4-GFP cells. The following applies: Human immunodeficiency virus 1, MT4-GFP cells infected with HIV-1 H9IIIB; 50% normal human serum; mean of at least two independent experiments; read-out: Cell-based IP. In outline: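 MT4-GFP cells (HIV LTR-driven GFP) infected 24 h with HIV-1 H9IIIB at low MOI, then washed and plated with compounds in RPMI + 50% normal human serum, 0.4% DMSO final. Green cells counted at 24 and 48 h; R0 = 48 h/24 h ratio, inhibition normalized to DMSO and triple-drug control; IC50 from 4-parameter fit.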
Take `C[C@@H]1CNC[C@H](CCc2c(F)cccc2NC(=O)CC(c2ccc(F)cc2)c2ccc(F)cc2)N1S(=O)(=O)c1ccccc1` [Example 90, N-(3-fluoro-2-{2-[(2S,6R)-6-methyl-1-(phenylsulfonyl)piperazin-2-yl]ethyl}phenyl)-3,3-bis(4-fluorophenyl) propanamide]: the pIC50 is 7.18.

Take `C[C@@H]1CNC[C@@H](CCc2c(F)cccc2NC(=O)CC(c2ccc(F)cc2)c2ccc(F)cc2)N1S(=O)(=O)c1ccccc1` [Example 91, N-(3-fluoro-2-{2-[(2R,6R)-6-methyl-1-(phenylsulfonyl)piperazin-2-yl]ethyl}phenyl)-3,3-bis(4-fluorophenyl) propanamide]: the pIC50 was 5.77.

On to `C[C@H]1CNC[C@H](CCc2c(F)cccc2NC(=O)CC(c2ccc(F)cc2)c2ccc(F)cc2)N1S(=O)(=O)c1ccccc1` [Example 92, N-(3-fluoro-2-{2-[(2S,6S)-6-methyl-1-(phenylsulfonyl)piperazin-2-yl]ethyl}phenyl)-3,3-bis(4-fluorophenyl) propanamide], for which the pIC50 is 7.77. On to `C[C@H]1CNC[C@@H](CCc2c(F)cccc2NC(=O)CC(c2ccc(F)cc2)c2ccc(F)cc2)N1S(=O)(=O)c1ccccc1` [Example 93, N-(3-fluoro-2-{2-[(2R,6S)-6-methyl-1-(phenylsulfonyl)piperazin-2-yl]ethyl}phenyl)-3,3-bis(4-fluorophenyl) propanamide], for which the pIC50 was 6.92.

As for `C[C@@H]1CNC[C@H](CCc2c(F)cccc2NC(=O)[C@@H](N)[C@@H](c2ccc(F)cc2)c2cc(F)cc(F)c2)N1S(=O)(=O)c1ccccc1` [Example 94, (βS)-β-(3,5-difluorophenyl)-4-fluoro-N-(3-fluoro-2-{2-[(2S,6R)-6-methyl-1-(phenylsulfonyl)piperazin-2-yl]ethyl}phenyl)-L-phenylalaninamide], the pIC50 is 7.62. Turning to `COC(=O)N[C@H](C(=O)Nc1cccc(F)c1CC[C@H]1CNC[C@H](C)N1S(=O)(=O)c1ccccc1)[C@@H](c1ccc(F)cc1)c1cc(F)cc(F)c1` [Example 95, (βS)-β-(3,5-difluorophenyl)-4-fluoro-N-(3-fluoro-2-{2-[(2S,6S)-6-methyl-1-(phenylsulfonyl)piperazin-2-yl]ethyl}phenyl)-Nα-(methoxycarbonyl)-L-phenylalaninamide], the pIC50 was 7.70. The value for `C[C@H]1CNC[C@H](CCc2c(F)cccc2NC(=O)[C@@H](N)[C@@H](c2ccc(F)cc2)c2cc(F)cc(F)c2)N1S(=O)(=O)c1ccccc1` [Example 97, (βS)-β-(3,5-difluorophenyl)-4-fluoro-N-(3-fluoro-2-{2-[(2S,6S)-6-methyl-1-(phenylsulfonyl)piperazin-2-yl]ethyl}phenyl)-L-phenylalaninamide] was 7.60; that for `C[C@@H]1CN(S(=O)(=O)c2ccccc2)[C@@H](CCc2c(F)cccc2NC(=O)[C@@H](N)[C@@H](c2ccc(Cl)cc2)c2cccc(OC(F)(F)F)c2)CN1` [Example 98, (βS)-4-chloro-N-(3-fluoro-2-{2-[(2S,5R)-5-methyl-1-(phenylsulfonyl)piperazin-2-yl]ethyl}phenyl)-β-[3-(trifluoromethoxy)phenyl]-L-phenylalaninamide] was 6.46. For the compound `COC(=O)N[C@H](C(=O)Nc1cccc(F)c1CC[C@H]1CNC[C@H](C)N1S(C)(=O)=O)[C@@H](c1ccc(F)cc1)c1cc(F)cc(F)c1` [Example 99, (βS)-β-(3,5-difluorophenyl)-4-fluoro-N-(3-fluoro-2-{2-[(2S,6S)-6-methyl-1-(methylsulfonyl)piperazin-2-yl]ethyl}phenyl)-Nα-(methoxycarbonyl)-L-phenylalaninamide], the pIC50 is 7.80. The value for `COC(=O)N[C@H](C(=O)Nc1cccc(F)c1CC[C@H]1CNC[C@H](C)N1S(=O)(=O)c1ccccc1)C(c1cccc(F)c1)c1cccc(F)c1` [Example 100, 3-fluoro-N-(3-fluoro-2-{2-[(2S,6S)-6-methyl-1-(phenylsulfonyl)piperazin-2-yl]ethyl}phenyl)-β-(3-fluorophenyl)-Nα-(methoxycarbonyl)-L-phenylalaninamide] was 7.52.
